According to article PMC12947280, “An Antifungal with a Novel Mechanism of Action Discovered via Resistance Gene-Guided Genome Mining” (ACS Central Science, 2026):
Values after ≈ are worked out from the molar mass of the structure shown. Read-outs that look alike come from different tables or passages of the source.

Columns and labels:
Test in all cases: Antifungal screening, broth microdilution MIC
Format in all cases: cell-based
[1] = tested on: Rhizopus oryzae ATCC 11886; conditions: for MIC: Rhizopus arrhizus, ATCC11886, Rhizopus oryzae ATCC 11886
Description: (§1) Antifungal screening of 1
(§2) Antifungal screening was performed by Micromyx, LLC (Kalamazoo, Michigan, USA). Test organisms were either reference strains from the American Type Culture Collection (ATCC; Manassas, VA), the Centers for Disease Control and Prevention (CDC; Atlanta, GA), or clinical isolates from the Micromyx (MMX) collection. Upon receipt at Micromyx, the isolates were streaked under suitable conditions onto agar medium appropriate to each organism. The yeast isolates were incubated for 24 hr at 35 °C and the fungi were incubated for 7 to 13 days at 35 °C, as appropriate. Colonies harvested from these growth plates were resuspended in the appropriate medium containing a cryoprotectant. Aliquots of each suspension were then frozen […]
(§3) Prior to testing, the yeast isolates were streaked from frozen vials onto Sabouraud Dextrose Agar (SAB; Becton Dickenson [BD]/BBL; Sparks, MD, Lot No. 2228660) and were incubated at 35°C for 24 hr. Additional fungal isolates were streaked from frozen vials onto potato dextrose agar (BD/BBL; Sparks, MD, Lot No. 2046481) and incubated under optimal conditions for […]
(§4) All MIC measurements were performed in RPMI1640 from Hyclone Laboratories (Logan, UT;
(§5) Cat. No. SH3001104; Lot No. AC10257966A) buffered with MOPS to pH-7 from Millipore […]
(§6) MIC values were determined using a broth microdilution procedure described by CLSI. 5,6.
(§7) Automated liquid handlers (Multidrop 384, Labsystems, Helsinki, Finland; Biomek 3000 and […]
(§8) Biomek FX, Beckman Coulter Fullerton CA) were used to conduct serial dilutions and liquid […]
(§9) Solutions of 1 were added in an 11 point 2x serial dilution in DMSO with a maximum tested concentration of 32 μg/ml in the culture medium. Drug solution was added at 1% v/v into 200 μl […]
(§10) A standardized inoculum of each test organism was prepared in appropriate media per CLSI methods.5,6 The plates were then inoculated with 10 µL of the diluted inoculum using the Biomek 3000 from low to high drug concentration, resulting in a final concentration of approximately 0.5 to 2.5 x 10^3 CFU/mL for yeast and 0.2 to 2.5 x 10^4 CFU/mL for the other fungi. An un-inoculated plate was incubated for the purpose of assessing solubility of the drug […]
(§11) The plates were stacked 3 to 4 high, covered with a sterile lid on the top plate, and incubated aerobically at 35 °C for 24, 48, and 72 h. For yeast, both the MIC based on complete inhibition and 50% inhibition were reported at 24 and 48 h. For other fungal isolates, the MIC values were recorded at 24 and 48 hr and were based on complete inhibition and 50% inhibition.
(§12) Intact protein LCMS analysis
(§13) 10 μM of recombinant S. cerevisiae ALS was incubated with 10 μM compound 1 in buffer (50 mM Tris pH 7.5, 100 mM KCl, 10 uM FAD, 1 mM TPP, 10 mM MgCl2 (with 2.5% DMSO from compound)) at 22 °C for 30 min. Unreacted 1 was removed by passing the reaction mixture through a 30 kDa MWCO filter (Millipore). The collected protein was then denatured and reduced by incubation with 6 M urea and 10 mM DTT at 37 °C for 1 h followed by 20 mM iodoacetamide alkylation for 30 min in dark. This reaction mixture then underwent buffer exchange into 100 mM Tris-HCl pH 8.0 and 10 mM CaCl2 buffer using a 30 kDa MWCO filter.
(§14) The protein was then incubated with sequencing grade chymotrypsin (Promega) (15:1,w/w) for […]
(§15) After digestion, the peptide mixture was immediately analysed by LC-MS/MS using a Waters I-class UPLC equipped with an ACQUITY UPLC BEH C18 column (2.1x50 mm, 1.7 µm, Waters) at 50 °C coupled to a Waters Synapt G2Si MS. The sample was injected and subjected to an LC gradient starting from 0.5% mobile phase B (ACN with 0.1% formic acid) for 5 min with linear increase to 40% B over 35 min. Mobile phase A was 0.1% formic acid water. Flow rate was maintained at 0.3 ml/min. MS/MS data was acquired in positive ionization mode with data dependent MS/MS acquisition. Peptide mapping was performed with PEAKs Studio 8.0 (Bioinformatics Solutions Inc.) followed by manual review to identify peptides putatively modified by covalent addition of 1. […]

[2] = tested on: Aspergillus fumigatus; conditions: for MIC: Aspergillus fumigatus
Description: as §1, §2, §3, §4, §5, §6, §7, §8, §9, §10, §11, §12, §13, §14, §15

[3] = tested on: Mucor circinelloides ATCC 24905; conditions: for MIC: ATCC24905, Mucor circinelloides ATCC 24905
Description: as §1, §2, §3, §4, §5, §6, §7, §8, §9, §10, §11, §12, §13, §14, §15

[4] = tested on: Aspergillus niger ATCC 9508; conditions: for MIC: ATCC9508, Aspergillus niger ATCC 9508
Description: as §1, §2, §3, §4, §5, §6, §7, §8, §9, §10, §11, §12, §13, §14, §15

[5] = 24 hr, read-out: MIC 100% growth inhibition
[6] = 24 hr, read-out: MIC >50% growth inhibition
[7] = 48 hr, read-out: MIC 100% growth inhibition
[8] = 48 hr, read-out: MIC >50% growth inhibition

Compound: CCCC1C(C)=CC2CC=CC3(C)C2C1C(=O)C31C(=O)NC(CCCO)C1=O (stereo not drawn) [compound 1]
- MIC [1, 5]: 1 µg/mL (≈ 2.59 µM)
- MIC [1, 6]: 0.5 µg/mL (≈ 1.3 µM)
- MIC [1, 7]: 16 µg/mL (≈ 41.5 µM)
- MIC [1, 8]: 8 µg/mL (≈ 20.8 µM)
- MIC (Table S5) ([1]; Rhizopus oryzae, species summary): 1
- MIC (Table S5) ([2]; A. fumigatus, species summary): 2-16
- MIC ([2]; 24 h, read-out: MIC 100% growth inhibition, Aspergillus fumigatus ATCC MYA-3626, 24 hr): 4 µg/mL (≈ 10.4 µM)
- MIC ([2]; 24 h, read-out: MIC 100% growth inhibition, Aspergillus fumigatus CDC 0731 (azole resistant), 24 hr): 16 µg/mL (≈ 41.5 µM)
- MIC ([2]; 24 h, read-out: MIC 100% growth inhibition, Aspergillus fumigatus CDC 0732 (azole resistant), 24 hr): 8 µg/mL (≈ 20.8 µM)
- MIC ([2]; 24 h, read-out: MIC 100% growth inhibition, Aspergillus fumigatus CDC 0733 (azole resistant), 24 hr): 8 µg/mL (≈ 20.8 µM)
- MIC ([2]; 24 h, read-out: MIC 100% growth inhibition, Aspergillus fumigatus CDC 0734 (azole resistant), 24 hr): 8 µg/mL (≈ 20.8 µM)
- MIC ([2]; 24 h, read-out: MIC 100% growth inhibition, Aspergillus fumigatus CDC 0735 (azole resistant), 24 hr): 8 µg/mL (≈ 20.8 µM)
- MIC ([2]; 24 h, read-out: MIC 100% growth inhibition, Aspergillus fumigatus CDC 0736 (azole susceptible), 24 hr): 8 µg/mL (≈ 20.8 µM)
- MIC ([2]; 24 h, read-out: MIC 100% growth inhibition, Aspergillus fumigatus CDC 0737 (azole susceptible), 24 hr): 16 µg/mL (≈ 41.5 µM)
- MIC ([2]; 24 h, read-out: MIC 100% growth inhibition, Aspergillus fumigatus CDC 0738 (azole susceptible), 24 hr): 2 µg/mL (≈ 5.19 µM)
- MIC ([2]; 24 h, read-out: MIC 100% growth inhibition, Aspergillus fumigatus CDC 0739 (azole susceptible), 24 hr): 4 µg/mL (≈ 10.4 µM)
- MIC ([2]; 24 h, read-out: MIC 100% growth inhibition, Aspergillus fumigatus CDC 0740 (azole susceptible), 24 hr): 4 µg/mL (≈ 10.4 µM)
- MIC ([2]; 24 h, read-out: MIC >50% growth inhibition, Aspergillus fumigatus ATCC MYA-3626, 24 hr): 4 µg/mL (≈ 10.4 µM)
- MIC ([2]; 24 h, read-out: MIC >50% growth inhibition, Aspergillus fumigatus CDC 0731 (azole resistant), 24 hr): 2 µg/mL (≈ 5.19 µM)
- MIC ([2]; 24 h, read-out: MIC >50% growth inhibition, Aspergillus fumigatus CDC 0732 (azole resistant), 24 hr): 2 µg/mL (≈ 5.19 µM)
- MIC ([2]; 24 h, read-out: MIC >50% growth inhibition, Aspergillus fumigatus CDC 0733 (azole resistant), 24 hr): 4 µg/mL (≈ 10.4 µM)
- MIC ([2]; 24 h, read-out: MIC >50% growth inhibition, Aspergillus fumigatus CDC 0734 (azole resistant), 24 hr): 4 µg/mL (≈ 10.4 µM)
- MIC ([2]; 24 h, read-out: MIC >50% growth inhibition, Aspergillus fumigatus CDC 0735 (azole resistant), 24 hr): 4 µg/mL (≈ 10.4 µM)
- MIC ([2]; 24 h, read-out: MIC >50% growth inhibition, Aspergillus fumigatus CDC 0736 (azole susceptible), 24 hr): 4 µg/mL (≈ 10.4 µM)
- MIC ([2]; 24 h, read-out: MIC >50% growth inhibition, Aspergillus fumigatus CDC 0737 (azole susceptible), 24 hr): 2 µg/mL (≈ 5.19 µM)
- MIC ([2]; 24 h, read-out: MIC >50% growth inhibition, Aspergillus fumigatus CDC 0738 (azole susceptible), 24 hr): 1 µg/mL (≈ 2.59 µM)
- MIC ([2]; 24 h, read-out: MIC >50% growth inhibition, Aspergillus fumigatus CDC 0739 (azole susceptible), 24 hr): 1 µg/mL (≈ 2.59 µM)
- MIC ([2]; 24 h, read-out: MIC >50% growth inhibition, Aspergillus fumigatus CDC 0740 (azole susceptible), 24 hr): 1 µg/mL (≈ 2.59 µM)
- MIC ([2]; 48 h, read-out: MIC 100% growth inhibition, Aspergillus fumigatus ATCC MYA-3626, 48 hr): > 32 µg/mL
- MIC ([2]; 48 h, read-out: MIC 100% growth inhibition, Aspergillus fumigatus CDC 0731 (azole resistant), 48 hr): > 32 µg/mL
- MIC ([2]; 48 h, read-out: MIC 100% growth inhibition, Aspergillus fumigatus CDC 0732 (azole resistant), 48 hr): > 32 µg/mL
- MIC ([2]; 48 h, read-out: MIC 100% growth inhibition, Aspergillus fumigatus CDC 0733 (azole resistant), 48 hr): > 32 µg/mL
- MIC ([2]; 48 h, read-out: MIC 100% growth inhibition, Aspergillus fumigatus CDC 0734 (azole resistant), 48 hr): > 32 µg/mL
- MIC ([2]; 48 h, read-out: MIC 100% growth inhibition, Aspergillus fumigatus CDC 0735 (azole resistant), 48 hr): > 32 µg/mL
- MIC ([2]; 48 h, read-out: MIC 100% growth inhibition, Aspergillus fumigatus CDC 0736 (azole susceptible), 48 hr): > 32 µg/mL
- MIC ([2]; 48 h, read-out: MIC 100% growth inhibition, Aspergillus fumigatus CDC 0737 (azole susceptible), 48 hr): > 32 µg/mL
- MIC ([2]; 48 h, read-out: MIC 100% growth inhibition, Aspergillus fumigatus CDC 0738 (azole susceptible), 48 hr): > 32 µg/mL
- MIC ([2]; 48 h, read-out: MIC 100% growth inhibition, Aspergillus fumigatus CDC 0739 (azole susceptible), 48 hr): 32 µg/mL (≈ 83 µM)
- MIC ([2]; 48 h, read-out: MIC 100% growth inhibition, Aspergillus fumigatus CDC 0740 (azole susceptible), 48 hr): 32 µg/mL (≈ 83 µM)
- MIC ([2]; 48 h, read-out: MIC >50% growth inhibition, Aspergillus fumigatus ATCC MYA-3626, 48 hr): > 32 µg/mL
- MIC ([2]; 48 h, read-out: MIC >50% growth inhibition, Aspergillus fumigatus CDC 0731 (azole resistant), 48 hr): > 32 µg/mL
- MIC ([2]; 48 h, read-out: MIC >50% growth inhibition, Aspergillus fumigatus CDC 0732 (azole resistant), 48 hr): > 32 µg/mL
- MIC ([2]; 48 h, read-out: MIC >50% growth inhibition, Aspergillus fumigatus CDC 0733 (azole resistant), 48 hr): > 32 µg/mL
- MIC ([2]; 48 h, read-out: MIC >50% growth inhibition, Aspergillus fumigatus CDC 0734 (azole resistant), 48 hr): > 32 µg/mL
- MIC ([2]; 48 h, read-out: MIC >50% growth inhibition, Aspergillus fumigatus CDC 0735 (azole resistant), 48 hr): 32 µg/mL (≈ 83 µM)
- MIC ([2]; 48 h, read-out: MIC >50% growth inhibition, Aspergillus fumigatus CDC 0736 (azole susceptible), 48 hr): 16 µg/mL (≈ 41.5 µM)
- MIC ([2]; 48 h, read-out: MIC >50% growth inhibition, Aspergillus fumigatus CDC 0737 (azole susceptible), 48 hr): 16 µg/mL (≈ 41.5 µM)
- MIC ([2]; 48 h, read-out: MIC >50% growth inhibition, Aspergillus fumigatus CDC 0738 (azole susceptible), 48 hr): 32 µg/mL (≈ 83 µM)
- MIC ([2]; 48 h, read-out: MIC >50% growth inhibition, Aspergillus fumigatus CDC 0739 (azole susceptible), 48 hr): 16 µg/mL (≈ 41.5 µM)
- MIC ([2]; 48 h, read-out: MIC >50% growth inhibition, Aspergillus fumigatus CDC 0740 (azole susceptible), 48 hr): 16 µg/mL (≈ 41.5 µM)
- MIC [3, 5]: 0.5 µg/mL (≈ 1.3 µM)
- MIC [3, 6]: 0.12 µg/mL (≈ 0.311 µM)
- MIC [3, 7]: 16 µg/mL (≈ 41.5 µM)
- MIC [3, 8]: 4 µg/mL (≈ 10.4 µM)
- MIC (Table S5) ([3]; Mucor circinelloides, species summary): 0.5
- MIC [4, 5]: 2 µg/mL (≈ 5.19 µM)
- MIC [4, 6]: 1 µg/mL (≈ 2.59 µM)
- MIC [4, 7]: 32 µg/mL (≈ 83 µM)
- MIC [4, 8]: 8 µg/mL (≈ 20.8 µM)
- MIC (Table S5) ([4]; Aspergillus niger, species summary): 2
